From ChEMBL document CHEMBL5126666, “Cladoxanthones A and B, Xanthone-Derived Metabolites with a Spiro[cyclopentane-1,2'-[3,9a]ethanoxanthene]-2,4',9',11'-tetraone Skeleton from a Cladosporium sp” (J Nat Prod, 2022) come the findings set out here.

Format in all cases: functional, cell-based
Assay [1] in a line: Antiproliferative activity against mouse MB49 cells assessed as reduction in cell viability after 24 hrs by MTT assay. The note with it: MB49, 24 h. On the technique in general: Formazan colour is commonly taken as a measure of viable cells.
In another assay the test system is J82. The experiment in a line: Antiproliferative activity against human J82 cells assessed as reduction in cell viability after 24 hrs by MTT assay. The conditions noted are these: J82, 24 h.
The subject of another assay is 4T1. The assay can be described thus: Antiproliferative activity against mouse 4T1 cells assessed as reduction in cell viability after 24 hrs by MTT assay. The conditions noted are these: 4T1, 24 h.
The next assay relates to Huh-7. The assay can be described thus: Antiproliferative activity against human Huh-7 cells assessed as reduction in cell viability after 24 hrs by MTT assay. The note with it: Huh-7, 24 h.

What is called IC50 is the concentration that gives 50% inhibition. `CC1=CC(=O)[C@]2(O)C(=O)c3c(ccc(-c4ccc5c(c4O)C(=O)[C@@]46C[C@@]7(C(=O)CC[C@@H]7C)[C@@](C)(CC4=O)C(=O)[C@]6(C)O5)c3O)O[C@@]2(C)[C@H]1O`: the IC50 was 41.7 µM in assay [1], 24.7 µM in the assay on J82, 27.5 µM with 4T1 and 46.4 µM in the assay on Huh-7.
Consider `C[C@H]1CCC(=O)[C@@]12C[C@]13C(=O)C[C@@]2(C)C(=O)[C@]1(C)Oc1cccc(O)c1C3=O`, for which the IC50 worked out at 13.9 µM in assay [1], 25 µM in the assay with J82, 38.7 µM in the assay with 4T1 and 24.3 µM in the assay on Huh-7.
